Assays:
[1] = system: vasoconstrictive activity, human volunteers; test: vasoconstrictive activity in human volunteers (McKenzie and Stoughton's test or Falconi and Rossi's Paper-Patch Test); type: in vivo; conditions: for vasoconstrictive activity (in words): human volunteers
From the text: Some of the esters have been tested in human volunteers for their vasoconstrictive activity using the McKenzie and Stoughton's test (1) or the Falconi and Rossi's Paper-Patch Test (2) in comparison with a known anti-inflammatory corticosteroid, namely fluocinolone acetonide.
In the first experiment 2 dilutions of 4 esters have been tested on volunteers and 10 dilutions have been applied for each subject.
1. Mc Kenzie, A.W., Stoughton, R.B.: Method for comparing percutaneous
absorption of Steroids. Arch. Derm. 86, 608, 1962.
vasoconstrictive activity of Corticosteroids. Arch. Derm. 105, 856, 1972.

[2] = thymolytic activity (topical administration); type: in vivo, rat (adult female albino, Sprague-Dawley)
Experimental: (§1) The topical anti-inflammatory activity of the new compounds of this invention was determined using the cotton granuloma assay. This test was performed according to C. A. Winter and C. C. Porter J. Am. Pharm. Ass. Sci., Ed. 46, 515. 1957 using adult female albino rats (Sprague-Dawley) average body weight 150 grams. 8 animals per group.
(§2) The method consists in the subcutaneous implantation in the dorsal region of 2 sterile cotton pelletts. The pellets employed were 5 mm section cut from dental cotton rolls weighing about 45 mg each. The tested compound dissolved in ethyl alcohol, was absorbed on the pellets before implantation. Fluocinolone acetonide and Dexamethasone-21-acetate was used as comparison products and their activities were conventionally taken equal to 1 for each of the various parameters herein considered. Comparison substance and tested new compounds were absorbed on the pellets at the following scalar dosage per each pellet: 20-2-0.2 mcg/cotton pellet. For the controls the pellets were soakened in the pure solvent (ethyl alcohol) and then dried as usually.
(§3) In the following Table 1. there are reported the achieved results with regard to the anti-inflammatory activity, the thymolitic activity, and the LD50 values: […]

LD50 (acute toxicity) = conditions: in vivo, topical or ocular; Table 1, topical administration
From the text: as §3

granuloma formation = test: cotton granuloma assay, topical anti-inflammatory activity; type: in vivo, rat (adult female albino, Sprague-Dawley); parameters: key: relative potency; comparison steroid = 1; conditions: 20-2-0.2 mcg/cotton pellet, 7 days; for Anti-inflammatory activity (*): (*) in comparison with Fluocinolone acetonide; for Anti-inflammatory activity (**): (**) in comparison with Dexamethasone 21-acetate
Experimental: as §1, §2
After seven days the animals were sacrified. The pellets were removed and the exudate weights were recorded as a measure of the granuloma formation. The degree of granuloma inhibition reflects the anti-inflammatory activity of the tested compounds.
as §3

[3] = Table 2a, second trial, dilution 10^3
[4] = Table 2a, second trial, dilution 10^4
[5] = Table 2a, second trial, dilution 10^5
[6] = Table 2a, second trial, dilution 10^6
[7] = Table 2, first trial, dilution 10^4
[8] = Table 2, first trial, dilution 10^5
[9] = topical, relative, comparison product conventionally equal to 1 (Dexamethasone 21-acetate = 1)

SMILES	% Positive [1, 7]	Results (Positive/No. of subjects) [1, 7]	% Positive [1, 8]	Results (Positive/No. of subjects) [1, 8]	Thymolytic activity [2, 9]	LD50 (LD50 (acute toxicity))	Anti-inflammatory activity (*) (granuloma formation)	Anti-inflammatory activity (**) (granuloma formation)	other results
CC1(C)O[C@@H]2C[C@H]3[C@@H]4CCC5=CC(=O)C=C[C@]5(C)[C@@]4(F)[C@@H](O)C[C@]3(C)[C@]2(C(=O)CO)O1 [Triamcinolone acetonide, reference compound]	–	–	–	–	–	–	–	–	% Positive [1, 3]: 100%; Results (Positive/No. of subjects) [1, 3]: 5/5; % Positive [1, 4]: 100%; Results (Positive/No. of subjects) [1, 4]: 5/5; % Positive [1, 5]: 60%; Results (Positive/No. of subjects) [1, 5]: 3/5; % Positive [1, 6]: 40%; Results (Positive/No. of subjects) [1, 6]: 2/5
CCCC(=O)OCC(=O)[C@@]12NN=C[C@@H]1C[C@H]1[C@@H]3C[C@H](F)C4=CC(=O)C=C[C@]4(C)[C@@]3(F)[C@@H](O)C[C@@]12C [Example 16-17-Dif-Bu, 16α,17α-Isopyrazolino-1,4-pregnadiene-6α,9α-difluoro-11β,21-diol-3,20-dione-21-butyrate]	60%	3/5	20%	1/5	–	–	–	–	–
CCCCC(=O)OCC(=O)[C@@]12NN=C[C@@H]1C[C@H]1[C@@H]3C[C@H](F)C4=CC(=O)C=C[C@]4(C)[C@@]3(F)[C@@H](O)C[C@@]12C [16-17-M-Dif-Va, 16α,17α-Isopyrazolino-1,4-pregnadiene-6α,9α-difluoro-11β,21-diol-3,20-dione-21-valerate]	100%	5/5	40%	2/5	–	–	–	–	% Positive [1, 3]: 100%; Results (Positive/No. of subjects) [1, 3]: 5/5; % Positive [1, 4]: 80%; Results (Positive/No. of subjects) [1, 4]: 4/5; % Positive [1, 5]: 80%; Results (Positive/No. of subjects) [1, 5]: 4/5; % Positive [1, 6]: 60%; Results (Positive/No. of subjects) [1, 6]: 3/5; vasoconstrictive activity (in words) [1]: showed the best activity in the first trial; vasoconstrictive activity (in words) ([1]; listed as 16-17-Dif-Va): showed the same potency as fluocinolone acetonide even at the lower concentrations employed in the trials
CC(=O)OCC(=O)[C@@]12N=NC[C@@H]1C[C@H]1[C@@H]3CCC4=CC(=O)C=C[C@]4(C)[C@@]3(F)[C@@H](O)C[C@@]12C [Pyr-F-Ac, 16α,17α-Pyrazolino-1,4-pregnadiene-9α-fluoro-11β,21-diol-3,20-dione-21-acetate]	–	–	–	–	0.14	721 mg/kg	≥ 10	≥ 20	–
CCCCC(=O)OCC(=O)[C@@]12NN=C[C@@H]1C[C@H]1[C@@H]3CCC4=CC(=O)C=C[C@]4(C)[C@@]3(F)[C@@H](O)C[C@@]12C [Example 16-17-M-F-Va, 16α,17α-Isopyrazolino-1,4-pregnadiene-9α-fluoro-11β,21-diol-3,20-dione-21-valerate]	100%	5/5	40%	1/5	–	–	–	–	–
CC(=O)OCC(=O)[C@@]12NN=C[C@@H]1C[C@H]1[C@@H]3C[C@H](F)C4=CC(=O)C=C[C@]4(C)[C@@]3(F)[C@@H](O)C[C@@]12C [16,17 M Dif-AC, 16α,17α-Isopyrazolino-1,4-pregnadiene-6α,9α-difluoro-11β,21-diol-3,20-dione 21-acetate]	–	–	–	–	0.26	1120 mg/kg	> 10	> 20	–
CC(=O)OCC(=O)[C@@]12N=NC[C@@H]1C[C@H]1[C@@H]3C[C@H](F)C4=CC(=O)C=C[C@]4(C)[C@@]3(F)[C@@H](O)C[C@@]12C [Pyr Dif-AC, 16α,17α-Pyrazolino-1,4-pregnadiene-6α,9α-difluoro-11β,21-diol-3,20-dione 21-acetate]	–	–	–	–	0.52	439 mg/kg	> 10	> 20	–
CC(=O)OCC(=O)[C@@]1(O)[C@H](C)C[C@H]2[C@@H]3CCC4=CC(=O)C=C[C@]4(C)[C@@]3(F)[C@@H](O)C[C@@]21C [Dexamethasone 21-acetate, reference compound]	–	–	–	–	–	259 mg/kg	1	1	Thymolytic activity ([2]; rat, in vivo): 1
CC1(C)O[C@@H]2C[C@H]3[C@@H]4C[C@H](F)C5=CC(=O)C=C[C@]5(C)[C@@]4(F)[C@@H](O)C[C@]3(C)[C@]2(C(=O)CO)O1 [Fluocinolone acetonide, reference compound]	100%	5/5	60%	3/5	–	166 mg/kg	2	2	Thymolytic activity ([2]; rat, in vivo): 0.83
CC(C)(C)C(=O)OCC(=O)[C@@]12NN=C[C@@H]1C[C@H]1[C@@H]3C[C@H](F)C4=CC(=O)C=C[C@]4(C)[C@@]3(F)[C@@H](O)C[C@@]12C [16-17-M-Dif-Piv, 16α,17α-Isopyrazolino-1,4-pregnadiene-6α,9α-difluoro-11β,21-diol-3,20-dione-21-pivalate]	20%	1/5	0%	0/5	–	–	–	–	–
CC(=O)OCC(=O)[C@@]12NN=C[C@@H]1C[C@H]1[C@@H]3CCC4=CC(=O)C=C[C@]4(C)[C@@]3(F)[C@@H](O)C[C@@]12C [16-17 MF-AC, 16α,17α-Isopyrazolino-1,4-pregnadiene-9α-fluoro-11β,21-diol-3,20-dione-21-acetate]	–	–	–	–	0.02	> 2000 mg/kg	> 10	> 20	–
